Earlier results in patent US20220378705A1, “METHOD FOR PREPARING PHARMACEUTICAL COMPOSITIONS CONTAINING AMPHIPHILIC ACTIVE INGREDIENTS” (PHARMADEV SA, priority 2019, published 2022).

Experiments:
[1] = octanol-water partition coefficient

pKa	Log Po/w [1]	Structure (SMILES)
4.17	4.16	CC(C(=O)O)c1ccc(-c2ccccc2)c(F)c1 (stereo not shown) [FLURBIPROFEN, 2-(3-fluoro-4-phenylphenyl)propanoic acid]
	4.20	Cc1cccc(Nc2ccccc2C(=O)O)c1C [MEFENAMIC ACID, 2-(2,3-dimethylanilino)benzoic acid]
4.44	4.43	O=C(O)c1cccnc1Nc1cccc(C(F)(F)F)c1 [NIFLUMIC ACID]
3.84	2.3	O=C(c1ccccc1)c1ccc2n1CCC2C(=O)O (racemic) [KETOROLAC, 2-amino-2-(hydroxymethyl)propane-1,3-2-amino-2-(hydroxymethyl)-1,3-propanediol(±)-5-benzoyl-2,3-dihydro-1H-pyrrolizine-1-carboxylic acid diol(±)-5-benzoyl-2,3-dihydro-1H-pyrrolizine-1-carboxylic acid]
